Test results from patent US20060058346A1, “Novel enantiomers of etrahydroisoquinoline derivatives and theirpharmaceutically acceptable salts, their preparations and pharmaceutical compositions” (priority 2002, published 2006).
Read-outs that look alike come from different tables or passages of the source.

What was measured:
[1] = test system: rat with DIC and MOF induced by endotoxin; experiment: Endotoxin-induced DIC and multiple organ failure in rat; assay type: in vivo; conditions: for platelet concentration compared with LPS only: FIG. 2
Method: Rats (Crj:CD(SD); 250±20 g) were used to test sample. Before the compound was administered, the rat was not fed. The compound was orally administered one time per day for two days in an amount of 10 mg˜25 mg/10 ml/kg/day. Distilled water (control group and LPS group) or enantiomer was administered to the rat repeatedly. After one hour, rat was anaesthetized with intramuscular injection of 50 mg/kg of pentobarbital. […] Thereafter, 50 mg/kg of pentobarbital was injected at 2 hour to the rat by intramuscular injection. Therefore, the rat was anaesthetized for all the experiment and operation.
The blood (2 ml for FDP and 6 ml for other variables) was collected from abdominal artery using a plastic syringe, into glass tube containing soy bean trypsin inhibitor and Bothrops atrox venom to measure FDP and into plastic tube containing 2.2% sodium citrate (1/10, volume/volume). The aggregated blood was centrifuged at 1200×g for 5 minutes two times. Before measurement of FDP, the supernatant was stored at freezer for at least 12 hours. Citrated blood was centrifuged at 2000×g for 30 minutes. The supernatant was used for measurement of fibrinogen and PT or APTT time. The aggregated blood collected in glass tube was disposed at the room temperature for 30 min, centrifuged to give the serum for measurement of AST and BUN.
Platelet from total citrated blood was counted by using automatic platelet counter (PLT-4, Texas International Lab.) PT or APTT time was measured by Beckton Dickenson BBL Fibrosystem (Coctkeysville, USA). FDP analysis was accomplished by using Thrombo-wellcotest kit. The said analysis was accomplished by up and down dilution method semi-quantitatively. Measurement of AST and BUN was accomplished by using Autobiochemical analyzer (Hitach 747, Japan).

[2] = Acute toxicity in rat (LD50); assay type: in vivo; conditions: Sprague-Dawley, in vivo
Method: Sprague-Dawley rats (six weeks) were used as test sample. Each group was comprised of two rats. […] The said emulsion was administered to two rats one times using intravenous injection and intraperitoneal injection.

rat PRP = experiment: Inhibition of platelet aggregation in rat PRP; assay type: cell-based; conditions: for IC50: Platelet, rat PRP
Method: Male rat (weighing 200±20 g) was anaesthetized with ether. The blood (nine volumes) was collected from heart using a plastic syringe containing 2.2% sodium citrate (one volume). The collected blood was centrifuged at 200×g for 10 minutes to give supernatant platelet-rich plasma (PRP). The residue was centrifuged again at 700×g for 30 minutes, giving platelet-poor plasma (PPP) for experiment. We used a platelet analyzer to count the number of platelet of the PRP. PRP was diluted with physiological saline solution to prepare solution containing platelets in an amount of 400-450×10^6/ml. The inhibitory effects of the compound represented by formulas 3 to 8 was evaluated by platelet aggregation analyzer, and the inhibitory effect of each compound is given as % below. That is, after PRP was incubated for 3 minutes at 37° C., the compounds or a carrier was added thereto, and after 1 min, platelet aggregation-inducing agent such as ADP, collagen, arachidonic acid (AA), U46619 or epinephrine was added thereto, followed by investigation of turbidity caused by aggregation of platelets. % Inhibition=A−B/A×100 [arithmetic formula 1] • (A: Platelet aggregation rate in group treated with an aggregation-inducing agent; • B: Platelet aggregation rate in group treated with both an aggregation-inducing agent and the enantiomers simultaneously)

LPS-injected rat = experiment: Survival in LPS-injected rat; assay type: in vivo
Method: Rats (25˜30 g, ICR), originated from NIH cancer institute (Bethesda, Md., USA) were purchased from Korea Test Animal Corp. (Unsung, Korea). 20 mg/kg of LPS was injected to abdominal cavity of the rat. Thereafter, survival was observed every 24 hours for seven days, to investigate effect of enantiomer on the survival in LPS-injected rat. The compound represented by formula 3 to 8 was administered 30 min before the LPS injection.

left auricle muscle = experiment: Contractile force of left auricle muscle excised from rats; parameters: species or system rat; conditions: for Contractile Force of Auricle Muscles: vehicle control:100%
Method: Immediately after Sprague-Dawley rats (female or male) were anaesthetized with pentobarbital sodium (50 mg/kg, i.m.), the thorax was opened to excise the heart. The heart was submerged in Krebs solution, and left auricle muscle and right auricle muscle were then isolated. The left auricle muscle was placed in an organ bath for recording of contractile force, and applied with electrical field stimulation (voltage 10% higher than threshold voltage, 1 Hz frequency, 5 ms duration). In the case of right auricle muscle, which contracts spontaneously, the number of continuous beats was recorded. In this experiment, to measure contractile fore of the two auricle muscles, the organ bath was warmed to 37° C., and as a physiological solution, Krebs solution (119.8 mM NaCl, 4.6 mM KCl, 2.5 mM CaCl2, 1.2 mM MgCl2, 25 mM NaHCO3, 1.2 mM KH2PO4, 10 mM glucose, 1 mM EDTA, pH 7.4) was used. The Krebs solution (pH 7.4) was continuously saturated with a gas mixture of 95% O2 and 5% CO2. The auricle muscle was under a tension of 1 g, and Krebs solution was exchanged with fresh solution at intervals of 20 minutes while equilibrium was maintained during a recording period of 60 minutes.

[3] = test system: RAW 264.7 macrophage cells; experiment: Nitric oxide production in macrophage cell stimulated by LPS (Griess); assay type: cell-based; conditions: for inhibition of production of NO: LPS-stimulated macrophage cell; for NO production by LPS in macrophage cell: LPS 1 μg/ml
Method: RAW 264.7 macrophage cells were plated on 100 mm culture dishes at a density of 1-2×10^5 cells. Thereafter, the said macrophage cell was incubated in DMEM medium containing 10% fetal calf serum (heat-inactivated), 100 U/ml penicillin, and […] streptomycin in a CO2 incubator. The said macrophage cell was incubated therein confluently. The said incubated macrophage cells were transferred to serum-free DMEM medium, and further incubated therein for about 24 hours. Thereafter, macrophage cells were stimulated with LPS (1 μg/ml) for about 8 hours. (In this progress, experimental group was divided into two groups, group to which the compound was administered, and group to which the compound was not.) Then, nitrite quantification was achieved by performing calorimetric reaction for produced nitrite with Griess reagent and then measuring absorbance at 550 nm, while using NaNO2 as a standard.

[4] = ip, single intraperitoneal injection, read-out: LD50, Intraperitioneal injection
[5] = single intravenous injection, read-out: LD50, Intravenous injection
[6] = ADP 2 − 5 × 10^−6 M, read-out: IC50 platelet aggregation, ADP
[7] = U46619 1.5 × 10^−6 M with threshold collagen, read-out: IC50 platelet aggregation, U46619
[8] = arachidonic acid 1 − 4 × 10^−5 M with threshold collagen, read-out: IC50 platelet aggregation, AA
[9] = collagen 2 − 5 × 10^−6 g/ml, read-out: IC50 platelet aggregation, collagen
[10] = epinephrine 1 − 4 × 10^−6 M with threshold collagen, read-out: IC50 platelet aggregation, Epinephrine

SMILES	platelet concentration compared with LPS only [1]	LD50 [2, 4]	LD50 [2, 5]	IC50 (rat PRP; [6])	IC50 (rat PRP; [7])	IC50 (rat PRP; [8])	IC50 (rat PRP; [9])	IC50 (rat PRP; [10])	effect on contractile force of auricle muscles (left auricle muscle)	Contractile Force of Auricle Muscles (left auricle muscle; 1 × 10^−4 M)	Contractile Force of Auricle Muscles (left auricle muscle; 1 × 10^−5 M)	Contractile Force of Auricle Muscles (left auricle muscle; 1 × 10^−6 M)	Contractile Force of Auricle Muscles (left auricle muscle; 1 × 10^−7 M)	Contractile Force of Auricle Muscles (left auricle muscle; 3 × 10^−5 M)	Contractile Force of Auricle Muscles (left auricle muscle; 3 × 10^−6 M)	Contractile Force of Auricle Muscles (left auricle muscle; 3 × 10^−7 M)	inhibition of production of NO [3]	NO production by LPS in macrophage cell ([3]; compound 10 μM)	NO production by LPS in macrophage cell ([3]; compound 50 μM)	NO production by LPS in macrophage cell ([3]; compound 100 μM)	also measured
Oc1cc2c(cc1O)[C@H](Cc1ccc3ccccc3c1)NCC2 [Formula 7, (S)-6,7-Dihydroxy-1-(β-naphthylmethyl)-1,2,3,4-tetrahydroisoquinoline]	higher	376 mg/kg	184 mg/kg	460 µM	61 µM	62 µM	150 µM	0.9 µM	strongly increased	380%	350%	250%	120%	380%	315%	170%	strongly inhibited production of NO	31.2 µM	15.2 µM	9.4 µM	serum level of FDP compared with R-configuration ([1]; 10 mg/kg, FIG. 4): lower; inhibitory effect on epinephrine-induced platelet aggregation, times as strong as R-enantiomer (rat PRP; epinephrine, S versus R): about seventeen times as strong; inhibitory effect on epinephrine-induced platelet aggregation, times as strong as racemic mixture (rat PRP; epinephrine, S versus racemic mixture): about five times as strong; survival after six days (LPS-injected rat; 15 mg/kg compound 30 min before LPS 20 mg/kg i.p.): 73%; decrease of survival at 30 mg/kg versus 15 mg/kg (LPS-injected rat; LPS 20 mg/kg): 7%
Oc1cc2c(cc1O)[C@@H](Cc1ccc3ccccc3c1)NCC2 [Formula 8, (R)-6,7-Dihydroxy-1-(β-naphthylmethyl)-1,2,3,4-tetrahydroisoquinoline]	higher	214 mg/kg	80 mg/kg	540 µM	49 µM	7.9 µM	150 µM	15 µM	no effect	105%	100%	100%	100%	105%	100%	100%	never or slightly inhibited production of NO	46 µM	42 µM	40 µM	survival after six days (LPS-injected rat; 30 mg/kg compound 30 min before LPS 20 mg/kg i.p.): 72%
